The source made the active and inactive calls.
Assays:
[1] = microbe, parasite or virus in culture; type: functional; details: Mycobacterium tuberculosis
cells = type: functional
[2] = target: T1, Ubiquitin-conjugating enzyme E2 N (Homo sapiens, UniProt P61088); type: functional;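 further: Dose-response confirmation in a TR-FRET assay detecting UBC13-driven polyubiquitin chain formation, inhibition measured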
T1 sequence (P61088 whole entry): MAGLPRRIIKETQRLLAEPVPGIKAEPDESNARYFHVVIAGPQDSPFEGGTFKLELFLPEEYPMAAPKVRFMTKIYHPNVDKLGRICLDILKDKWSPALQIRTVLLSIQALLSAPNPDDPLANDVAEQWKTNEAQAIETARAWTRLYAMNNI

[3] = target: FAD-linked sulfhydryl oxidase ALR (Homo sapiens, UniProt P55789); assay: ALR-catalysed DTT oxidation blockers – biochemical, H2O2 detection, luminescence, cherry-pick, dose response (AID 493248)
[4] = viability of uninfected HEp-2 cells – cell-based, HTS, cytotoxicity control for RSV inhibitor project, dose response (AID 2410); type: functional; details: human respiratory syncytial virus
[5] = non-specific 3'UTR reporter inhibition in Clone20-Shn3RL – cell-based, Renilla luciferase, cherry-picked, counter-screen for Shn3 inhibitor project, dose response (AID 624133); type: functional
[6] = target: T2, RNA-binding protein pos-1 (Caenorhabditis elegans, UniProt G5EF15); assay: disruptors of C. elegans POS-1 RNA interaction – biochemical, fluorescence polarization, dose response (AID 1964);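 further: purified POS-1 fused to maltose binding protein made in E. coli; potency of compounds blocking POS-1 binding to fluorescent RNA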
T2 sequence (G5EF15 whole entry): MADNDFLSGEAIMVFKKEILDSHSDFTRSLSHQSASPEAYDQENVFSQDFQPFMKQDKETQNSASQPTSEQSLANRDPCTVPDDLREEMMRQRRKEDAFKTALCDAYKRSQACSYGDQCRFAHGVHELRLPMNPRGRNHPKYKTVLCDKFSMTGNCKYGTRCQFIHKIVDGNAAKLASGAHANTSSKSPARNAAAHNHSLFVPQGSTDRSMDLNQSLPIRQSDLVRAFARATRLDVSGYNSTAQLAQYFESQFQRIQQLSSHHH

[7] = target: T3, Zinc finger protein mex-5 (Caenorhabditis elegans, UniProt Q9XUB2); assay: potency of MEX-5 RNA-binding blockers – biochemical, C. elegans, fluorescence polarization, dose response (AID 1960)
T3 sequence (Q9XUB2 whole entry): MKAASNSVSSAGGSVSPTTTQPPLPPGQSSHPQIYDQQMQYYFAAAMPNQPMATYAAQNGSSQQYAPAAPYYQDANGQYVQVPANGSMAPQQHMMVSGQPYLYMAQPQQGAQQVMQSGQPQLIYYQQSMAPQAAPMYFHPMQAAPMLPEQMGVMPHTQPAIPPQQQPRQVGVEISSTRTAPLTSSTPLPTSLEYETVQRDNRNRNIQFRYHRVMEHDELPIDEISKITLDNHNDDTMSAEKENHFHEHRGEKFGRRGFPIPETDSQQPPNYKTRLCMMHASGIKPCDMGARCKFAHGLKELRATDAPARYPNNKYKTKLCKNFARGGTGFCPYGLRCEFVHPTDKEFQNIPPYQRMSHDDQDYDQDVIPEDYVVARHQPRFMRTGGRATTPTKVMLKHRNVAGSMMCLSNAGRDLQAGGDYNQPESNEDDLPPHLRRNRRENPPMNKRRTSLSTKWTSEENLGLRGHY

[8] = target: T4, Replicative DNA helicase DnaB (Mycobacterium tuberculosis, UniProt P9WMR3); assay: DnaB intein splicing inhibitors, dose response, biochemical, cell-free fluorescence (AID 449749); type: functional
T4 sequence (P9WMR3 whole entry): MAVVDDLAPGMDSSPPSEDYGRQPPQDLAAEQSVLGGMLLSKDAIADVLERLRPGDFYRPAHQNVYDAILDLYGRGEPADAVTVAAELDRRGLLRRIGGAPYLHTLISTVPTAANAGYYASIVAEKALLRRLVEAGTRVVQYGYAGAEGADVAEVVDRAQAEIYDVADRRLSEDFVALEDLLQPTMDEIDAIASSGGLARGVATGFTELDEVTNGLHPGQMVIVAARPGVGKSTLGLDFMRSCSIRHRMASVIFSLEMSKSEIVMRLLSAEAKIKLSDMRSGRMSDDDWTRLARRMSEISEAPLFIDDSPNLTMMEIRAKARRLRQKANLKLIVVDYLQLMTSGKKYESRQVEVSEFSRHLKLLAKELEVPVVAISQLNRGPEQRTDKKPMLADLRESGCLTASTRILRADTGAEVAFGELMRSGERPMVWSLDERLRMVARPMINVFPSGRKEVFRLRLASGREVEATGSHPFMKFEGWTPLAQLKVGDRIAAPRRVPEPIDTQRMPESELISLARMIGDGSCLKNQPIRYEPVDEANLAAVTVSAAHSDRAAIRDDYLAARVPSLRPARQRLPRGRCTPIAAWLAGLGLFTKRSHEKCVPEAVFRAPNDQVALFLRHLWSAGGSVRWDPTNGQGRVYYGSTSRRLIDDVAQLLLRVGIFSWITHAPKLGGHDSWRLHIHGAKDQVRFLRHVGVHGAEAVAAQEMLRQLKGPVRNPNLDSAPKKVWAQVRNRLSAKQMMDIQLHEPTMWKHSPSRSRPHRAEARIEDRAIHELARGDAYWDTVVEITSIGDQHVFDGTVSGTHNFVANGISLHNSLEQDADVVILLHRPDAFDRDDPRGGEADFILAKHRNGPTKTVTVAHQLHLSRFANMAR

Protein RecA = target: T5, Protein RecA (Mycobacterium tuberculosis, UniProt P9WHJ3); assay: Fluorescence Cell-Free Homogeneous Dose Retest to Identify Inhibitors of RecA-Intein Splicing Activity. [Related pubchem assays (depositor defined):AID2097, AID2223, AID489010, AID492950]; type: functional
T5 sequence (P9WHJ3 whole entry): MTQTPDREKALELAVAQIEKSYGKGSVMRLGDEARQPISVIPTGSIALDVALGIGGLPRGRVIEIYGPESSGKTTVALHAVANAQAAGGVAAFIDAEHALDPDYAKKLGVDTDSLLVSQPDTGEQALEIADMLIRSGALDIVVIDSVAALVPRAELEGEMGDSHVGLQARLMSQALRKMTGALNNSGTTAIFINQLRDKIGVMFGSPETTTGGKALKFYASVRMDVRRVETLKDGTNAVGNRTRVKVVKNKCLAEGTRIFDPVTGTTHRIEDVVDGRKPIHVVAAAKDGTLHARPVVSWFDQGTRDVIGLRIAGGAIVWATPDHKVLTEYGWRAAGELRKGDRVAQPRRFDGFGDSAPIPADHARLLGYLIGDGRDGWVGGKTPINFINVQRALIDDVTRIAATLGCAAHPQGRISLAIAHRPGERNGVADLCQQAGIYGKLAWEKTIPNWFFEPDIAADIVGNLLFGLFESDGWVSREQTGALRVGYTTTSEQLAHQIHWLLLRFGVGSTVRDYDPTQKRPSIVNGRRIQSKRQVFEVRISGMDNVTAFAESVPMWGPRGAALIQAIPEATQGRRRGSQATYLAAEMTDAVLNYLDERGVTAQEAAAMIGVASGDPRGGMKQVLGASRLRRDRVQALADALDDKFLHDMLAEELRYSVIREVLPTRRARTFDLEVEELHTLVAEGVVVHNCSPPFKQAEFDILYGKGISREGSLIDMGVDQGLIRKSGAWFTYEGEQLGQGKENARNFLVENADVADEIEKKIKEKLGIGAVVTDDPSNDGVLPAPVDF

[9] = target: T6, Heat shock factor protein 1 (Mus musculus, UniProt P38532); assay: enhancement of HSF1-driven luciferase signal – cell-based, NIH3T3, luminescence, dose retest, confirmation (AID 435004); type: functional;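 further: stress induced by proteasome inhibitor MG132 added 30 min after compound; luciferase reporter driven by HSF1 response element in NIH3T3 cells; actives raise luminescence as potentiators of the MG132 stress response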
T6 sequence (P38532 whole entry): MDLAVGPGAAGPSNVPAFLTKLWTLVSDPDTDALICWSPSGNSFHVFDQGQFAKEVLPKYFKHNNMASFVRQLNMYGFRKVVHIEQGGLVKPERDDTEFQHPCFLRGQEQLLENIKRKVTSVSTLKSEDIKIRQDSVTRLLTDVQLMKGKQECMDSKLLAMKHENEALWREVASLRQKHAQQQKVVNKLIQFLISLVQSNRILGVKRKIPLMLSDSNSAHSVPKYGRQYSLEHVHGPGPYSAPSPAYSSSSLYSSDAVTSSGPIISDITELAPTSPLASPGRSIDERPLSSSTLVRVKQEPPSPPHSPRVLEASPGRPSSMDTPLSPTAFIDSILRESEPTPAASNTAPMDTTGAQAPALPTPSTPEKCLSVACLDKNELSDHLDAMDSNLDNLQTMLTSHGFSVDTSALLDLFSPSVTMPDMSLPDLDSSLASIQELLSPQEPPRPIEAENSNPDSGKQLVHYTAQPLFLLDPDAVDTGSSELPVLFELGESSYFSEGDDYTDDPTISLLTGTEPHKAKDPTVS

[10] = target: Luciferin 4-monooxygenase (Photinus pyralis, UniProt P08659); assay: inhibition of purified Photinus pyralis luciferase – biochemical, luminescence, dose response (AID 1891)
[11] = Luminescence Cell-Based Dose Confirmation HTS to Identify Inhibitors of Platelet Dense Granule Release. [Related pubchem assays: 1663 (Primary HTS), 1678 (Summary of Project)]; type: functional
[12] = Trypanosoma cruzi growth suppression in host cells – NIH3T3 host cells, beta-gal luminescence, confirmation (AID 2044); type: functional, cell-based;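 further: intracellular parasites grown in NIH/3T3 mouse fibroblasts as host cells; luminescent beta-galactosidase reporter signal from transgenic T. cruzi replicating inside host cells; inhibitors lower the luminescence signal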
[13] = NIH3T3 cell viability loss – ATP luminescence, mouse fibroblasts, counter-screen, dose response (AID 2010); type: functional, cell-based;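 further: cells exposed to compound for about 90 hours before reading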
[14] = reduction of Shn3 3'UTR-driven luciferase in osteoblasts – cell-based, Clone20 osteoblasts, firefly luciferase, cherry-picked, dose response (AID 624132); type: functional;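 further: firefly luciferase luminescence from reporter carrying the Shn3 3'UTR in osteoblasts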
[15] = luciferase reporter signal suppression in cells – H4 neuroglioma cells, luminescence, dose response (AID 1990); type: functional, cell-based
[16] = Luminescence Cell-Based Dose Response HTS to Identify Inhibitors of 5'UTR Stem-Loop Driven Prion Protein mRNA Translation in H4 Neuroglioblastoma Cells. [Related pubchem assays: 1827 (Project Summary), 1813 (Primary HTS)]; type: functional
[17] = alpha-synuclein stem-loop luciferase translation blockers – H4 neuroglioma cells, luminescence, confirmation (AID 1988); type: functional, cell-based

Chain of FAD-linked sulfhydryl oxidase ALR (P55789 whole entry): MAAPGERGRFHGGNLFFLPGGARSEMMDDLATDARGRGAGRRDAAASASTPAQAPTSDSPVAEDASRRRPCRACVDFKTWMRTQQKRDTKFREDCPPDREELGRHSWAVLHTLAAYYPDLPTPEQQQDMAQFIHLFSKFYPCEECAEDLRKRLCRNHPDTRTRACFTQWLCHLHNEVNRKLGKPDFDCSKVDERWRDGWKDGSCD
Chain of Luciferin 4-monooxygenase (P08659 whole entry): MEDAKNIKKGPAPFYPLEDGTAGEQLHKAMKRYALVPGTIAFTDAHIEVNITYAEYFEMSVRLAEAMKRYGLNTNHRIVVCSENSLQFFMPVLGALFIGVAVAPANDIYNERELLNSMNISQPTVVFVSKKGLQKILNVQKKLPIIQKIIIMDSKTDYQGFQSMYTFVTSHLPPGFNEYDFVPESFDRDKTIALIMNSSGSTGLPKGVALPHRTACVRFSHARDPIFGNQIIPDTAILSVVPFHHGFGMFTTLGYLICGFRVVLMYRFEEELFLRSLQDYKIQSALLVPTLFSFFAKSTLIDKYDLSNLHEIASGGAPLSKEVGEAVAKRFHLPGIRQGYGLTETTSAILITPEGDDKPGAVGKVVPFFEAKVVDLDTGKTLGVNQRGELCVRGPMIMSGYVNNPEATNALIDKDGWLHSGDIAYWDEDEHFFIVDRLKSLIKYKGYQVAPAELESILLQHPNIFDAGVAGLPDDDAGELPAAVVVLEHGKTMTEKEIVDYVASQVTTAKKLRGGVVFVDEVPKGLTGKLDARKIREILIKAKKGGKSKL

CCOc1ccc(OCCSc2ccc(S(=O)(=O)N3CCN(C)CC3)cn2)cc1
CC50 [1]: > 40 µM (active) | IC50 (cells): 19.3 µM (active)

Cc1nn2c(nc(N3CCOCC3)c3ccccc32)c1C=C(C#N)C#N
IC50 [2]: > 20 µM (inactive)

O/N=C\c1ccc(-c2ccccc2)o1
AC50 [3]: 6.45 µM (active)

O=C(CCS(=O)(=O)c1ccccc1)Nc1nc2c(s1)CCCC2
CC50 [4]: 18.5 µM (active) | AC50 [5]: 25.2 µM (active)

CCc1nnc(NC(=O)c2cc3ccccc3oc2=O)s1
IC50 (cells): 0.81 µM (active)

Cc1cccc(N2CC(C(=O)Nc3ccccc3N3CCCC3)CC2=O)c1C (configuration not stated)
AC50 [3]: 1.93 µM (active)

CCOc1cc(C(c2c(C)[nH][nH]c2=O)c2c(C)[nH][nH]c2=O)cc([N+](=O)[O-])c1O
EC50 [6]: 16.3 µM (active) | EC50 [7]: 2.07 µM (active) | AC50 [8]: 0.299 µM (active) | EC50 (Protein RecA): 0.219 µM (active)

C=CCn1c(S)nnc1-c1cc(-c2ccccc2)sc1N
EC50 [9]: > 260 µM (inactive) | AC50 [3]: < 0.005 µM (active)

Nc1ccc(-c2nc3cc(N)ccc3o2)cc1
EC50 [10]: > 112 µM (not active) | EC50 [11]: 29.6 µM (active) | AC50 [3]: 0.289 µM (active)

C[C@@H](CN1C2=NC[C@H](Cc3ccccc3)N2C[C@H]1Cc1ccc(O)cc1)NC(=O)CCC1CCCCC1
IC50 [2]: > 20 µM (inactive)

CC(C)C(=O)NCCSc1c[nH]c2ccccc12
AC50 [3]: 3.12 µM (active)

CC(C)(C)OC(=O)N/N=C\c1ccc(OC(=O)c2ccco2)cc1
IC50 (cells): 39.5 µM (active) | AC50 [8]: 34.5 µM (active) | EC50 (Protein RecA): 16.2 µM (active)

O=C(Nc1ccc(Br)cc1)c1cc([N+](=O)[O-])cc([N+](=O)[O-])c1
EC50 [12]: 0.19 µM (active) | EC50 [13]: > 60 µM (not active) | IC50 (cells): 11.4 µM (active)

COC(=O)c1ccc(N2CCN(S(=O)(=O)c3ccc(C)cc3)CC2)c([N+](=O)[O-])c1
AC50 [14]: 3.88 µM (active) | AC50 [5]: 2.95 µM (active)

Cc1ccc(NC2CCCN(C(=O)CCCN3CCCCC3=O)C2)cc1C (configuration not stated)
AC50 [3]: 8.32 µM (active)

Cc1ccc(-n2c(S)nnc2-c2cnccn2)cc1
AC50 [3]: 6.42 µM (active)

CN(C)c1ncnc2c1C(c1ccccc1)C(C)(C)O2 (configuration not stated)
AC50 [14]: > 70 µM (inactive)

N=c1c(S(=O)(=O)c2ccc(Cl)cc2)cc2c(=O)n3ccccc3nc2n1C1CCCCC1
EC50 [15]: 83.2 µM (active) | EC50 [6]: 82.7 µM (inconclusive) | EC50 [16]: 14.1 µM (active) | EC50 [7]: 125 µM (active) | EC50 [17]: > 120 µM (not active)

O=C(O)c1[nH]c2ccccc2c1NS(=O)(=O)c1ccc(F)cc1
AC50 [3]: 3.4 µM (active)

Cc1cccc(C)c1NC(=O)COC(=O)CCc1c[nH]c2ccccc12
IC50 (cells): 9.65 µM (active)

Cc1oc2cc3oc(=O)c(CC(=O)N[C@@H](C)C(=O)NC(Cc4ccc(Cl)cc4)C(=O)O)c(C)c3cc2c1C (some centres not stated)
AC50 [3]: 94.3 µM (active)

O=C(c1ccccc1)C1CN(Cc2ccccc2)CCC1(O)c1ccccc1 (configuration not stated)
IC50 (cells): 18.7 µM (active)

CCCCOc1ccc(C(=O)NNC(=O)c2cnccn2)cc1OC
IC50 [2]: > 20 µM (inactive)

COc1ccccc1NC(=O)COC(=O)c1cc(C)nc2ccccc12
IC50 [2]: > 20 µM (inactive)

CC(=O)Nc1ccc(S(=O)(=O)N[C@@H](C)C(=O)N2CCN(c3ccccn3)CC2)cc1
AC50 [3]: 1.37 µM (active)

Reference: ChEMBL document CHEMBL1201862, “PubChem BioAssay data set” (2004)
